The results in this text go back to patent US20120301551A1, “COMPOUNDS AND COMPOSITIONS FOR TREATING NEURONAL DEATH OR NEUROLOGICAL DYSFUNCTION” (Neurotech Pharmaceuticals Co., Ltd., priority 2005, published 2012).

Like-named read-outs stand apart in the source and are kept apart here.

Data set [1] has as its system neuron-rich cortical cell cultures. Kind of data set: serum deprivation-induced neuronal cell apoptosis. As to conditions: 24 hr, 5 mM Li^+, 100 μM zVADfmk, 1 μM 2-hydroxy TTBA. The data set is classed as cell-based, mouse. The protocol: (B) Neuron-rich cortical cell cultures (DIV 7) were deprived of serum, alone or with addition of 100 μM zVADfmk, 1 μM 2-hydroxy TTBA, or 5 mM Li^+. Neuronal death was analyzed 24 hr later by counting viable neurons excluding trypan (mean±SEM, n=4). *, Significant difference from the relevant control (serum deprivation alone), p<0.05 using ANOVA and Student-Neuman-Keuls test. (C) Western blot analysis of FADD antibody following immunoprecipitation with Fas antibody in the same samples above.
Additional experiments were performed to examine if targeting both neuronal cell necrosis and apoptosis would result in synergic neuroprotection in […] transgenic mice. […] Neuronal cell apoptosis was induced by serum deprivation in neuron-rich cortical cell cultures as reported, which was prevented by addition of 5 mM Li^+ as well as zVADfmk, a broad spectrum inhibitor of caspases (FIG. 5B). […] Additional experiments were performed to examine if Li^+ would prevent Fas signaling pathway. […] This implies that 2-Hydroxy-TTBA and Li^+ blocks oxidative neuronal cell necrosis and apoptosis, respectively.

The test system of data set [2] is APPswe/PS1deltaE9 double transgenic mice. Kind of data set: open field activity in APPswe/PS1deltaE9 double transgenic mice. The data set is classed as in vivo, mouse. As to conditions: 25 mg/kg/day chemical 01 or 62.5 mg/kg/day ibuprofen for 14.5 months (3~17.5 months). The protocol: After administration of drug for 14.5 months, Open field activity test was performed to evaluate locomotor activity and exploratory behavior. 4×4 of scale marks were drawn in white acryl box having a size of 60 cm×60 cm×35 cm (width×length×height) to make sixteen squares. Four squares in the center became center zone and twelve squares around the center zone became peripary zone. Mice were laid into transparent acryl tube (diameter: about 3.5 inches) laid at the left corner of the acryl box for 30 seconds. After 30 seconds, acryl tube was removed to make mouse free. Experiment was once performed for each mouse for 5 minutes. The distance traveled in the open field was recorded (mean±SEM, n=3-5).
(§1) 17.5 month-old APPswe/PS1deltaE9 double transgenic mice were fed chow alone (saline only), or containing 25 mg/kg/day of chemical—01, for […] (3˜17.5 month).
Open field activity was used to evaluate locomotor activity and exploratory behavior. The distance traveled in the open field was recorded and performance was analyzed after the testing took place.

Data set [3] deals with cerebral cortical cell cultures. Kind of data set: nerve cell death by MPP+ in cerebral cortical cell cultures (LDH). In kind it is cell-based. Conditions: 50 uM MPP+. Here is the method:
Cerebral cortical cell cultures (DIV 13˜15) were continuously exposed to 50 uM MPP+ alone or with inclusion of 0.03-3 uM of chemical 01. After 24 hours, activity of LDH released outside cell was evaluated to quantify death of nerve cell (mean±SEM, n=4 culture well/each group).

For another data set, the system named is beta-amyloid (Aβ42). The experiment in a line: suppression of beta-amyloid (Aβ42) production in CHO cells (ELISA). In kind it is cell-based, Chinese hamster. As to conditions: Cricetulus griseus; CHO cells stably transfected with human wild APP695 and PS1ΔExon9; culture medium, ELISA; read-out: Aβ42 lowering effect (IC50). Here is the method: The suppressing effects of many drug candidates on production of beta-amyloid were evaluated in CHO cell line having the increased level of beta-amyloid. Results were shown as IC50 (uM) (Item C of Table 3 below).
In the Table 3, A, B and C mean neuron protecting effect against Fe^+2, suppressing effect on production of NO and suppressing effect on production of beta-amyloid, respectively. The term “ND” means “Not determined.”
Cells were treated with increasing concentrations of various chemicals in Chinese hamster ovary (CHO) cells stably transfected with human wild APP695 and the PS1ΔExon9, and analyzed Aβ42 levels in culture medium by colorimetric sandwich ELISA kit (BIOSOURCE, Camarillo, Calif.). In CHO cells, IC50 of Chemical—01-08 on Aβ42 lowering effect was 20-100 uM (Table 4).

Another data set deals with gastric mucous membrane. The experiment in a line: gastric mucous membrane damage after oral administration. In kind it is in vivo. As to conditions: 1,000 mg/kg orally administered. Here is the method: FIG. 10 is results showing degrees of the gastric mucous membrane damage. Test samples were orally administered in a different dose. […] Aspirin was used as control.
Conventional NSAIDs have side effects causing damages to the gastric mucous membrane. Therefore, it was evaluated whether chemical 01 having anti-inflammatory effect causes the gastric damage or not. 30, 100 or 300 mg/kg of aspirin was orally administered as control.

The test system of the next data set is IL-6. The experiment in a line: LPS-induced IL-6 production in BV2 cells. The data set is classed as cell-based. Here is the method: Suppressing effects of chemical 01 in BV2 cell lines on production of IL-1β, IL-6 or TNF-α were evaluated. BV2 cells were exposed to 1 ug/ml LPS (inflammation-inducing material) with inclusion of chemical 01 at indicated doses. After 4 hours, supernatant were collected and concentrations of TNF-a were evaluated. In addition, BV2 cells were treated by the same method, and 24 hours later, supernatant were collected and concentrations of IL-1β and IL-6 were evaluated (mean±SEM, n=3). BV2 cells treated with LPS only were used as control.

Data set [4] in a line: superoxide scavenging in test tube. The data set is classed as biochemical. As to conditions: read-out: superoxide scavenging effect (IC50 value). The protocol: In addition, scavenging effects of superoxide and hydroxyl radical in test tube were evaluated. Hydroxyl radical scavenging activities of 0.1 uM, 1 uM and 10 uM of chemical 01 were 13.35%, 33.33% and 71.72%, respectively.

For data set [5], the system named is APPswe/PS1deltaE9 double transgenic mice. Kind of data set: Morris water maze in APPswe/PS1deltaE9 double transgenic mice. As to conditions: 25 mg/kg/day chemical 01 or 62.5 mg/kg/day ibuprofen for 14.5 months (3~17.5 months). The data set is classed as in vivo, mouse. The protocol: After administration of 14.5 months, the cognitive function was analyzed by Morris water maze test like example 10-3-1 (mean±SEM, n=3-5).
as §1
The cognitive function was analyzed by Morris water maze test. Mice ware trained to perform a hidden platform task in the Morris water maze. The latency to find the platform was recorded for each mouse.

For data set [6] the test system is unchanged. Kind of data set: amyloid plaque burden in APPswe/PS1deltaE9 double transgenic mice (Thioflavin-S). In kind it is in vivo, mouse. The protocol: The treatment with 25 mg/kg/day of chemical 01 for 7 months (from 3.5 to 10.5 month-old APP/PS1) caused a significant 53% reduction in amyloid plaque burden compared to APP/PS1 dementia mouse fed with general chow only.
10.5 month-old APPswe/PS1deltaE9 double transgenic mice were fed chow alone (saline only), or containing 25 mg/kg/day of chemical—01, for 7.5 months before being sacrificed (3˜10.5 month). 18-20 μm brain sections stained 1% Thioflavin-S for 5 min and observed under fluorescence microscope system.

Turning to `O=C(O)c1cc(NCc2c(F)c(F)c(C(F)(F)F)c(F)c2F)ccc1O` [2-Hydroxy-TTBA, 2-hydroxy-5-(2,3,5,6-tetrafluoro-4-trifluoromethyl-benzylamino)-benzoic acid], the results for the “serum deprivation-induced neuronal cell apoptosis, effect in words” value in [1] and in [1] (listed as 2-hydroxy TTBA) were “not attenuated” and “not”, respectively.
As for `O=C(O)c1cc(NCCc2ccc(C(F)(F)F)cc2)ccc1O` [chemical 01, 2-Hydroxy-5-[2-(4-trifluoromethyl-phenyl)-ethylamino]-benzoic acid], the “open field activity (distance traveled)” value in data set [2] is “reduced significantly”. Also, the IC50 in data set [3] (24 hours, LDH, read-out: IC50, nerve cell death caused by MPP+) is 57 nM; with beta-amyloid (Aβ42) it was 19.6 µM; in [4] (NADH/PMS system), 26.1 µM; in [4] (X/XO system) it was more than 100 µM. In [3] (0.03-3 uM), the “nerve cell death caused by MPP+, in words” value is listed as “dose-dependent manner”. For the same compound, the “gastric side effect (damage of the gastric mucous membrane)” value is on record as “did not cause damage of the gastric mucous membrane” in the data set on gastric mucous membrane and “did not cause the gastric side effect” with gastric mucous membrane (listed as Chemical 01). Further, the “decrease of IL-6 released into media” value in the data set on IL-6 (100 uM, 1 ug/ml LPS, 24 hours) is approximately 70%. The “IL-6 decrease, in words” value with IL-6 (1~100 uM) is “dose-dependent manner”. Also, in data set [5], the “escape latency / cognitive function (Morris water maze)” value is recorded as “shorter”. Also, the “reduction in amyloid plaque burden” value is 53% in data set [6] (25 mg/kg/day for 7 months (from 3.5 to 10.5 month-old)) and 49.3% in [6] (25 mg/kg/day, from 8.5 to 12.5 month-old (4 months)). In data set [6] (25 mg/kg/day for 7.5 months (3~10.5 month)), the “reduction in plaque burden” value turned out to be 53.4%.

By IC50 is commonly meant the concentration needed to halve the response being measured.
